Test results published in patent US10308650B2, “Pesticidally active tetracyclic derivatives with sulfur containing substituents” (Syngenta Participations AG, priority 2014, dated 2019).
Like-named read-outs stand apart in the source and are kept apart here.

Legend:
Type in all cases: in vivo
[1] = system: Tetranychus urticae (Two-Spotted Spider Mite); test: Activity against Tetranychus urticae: feeding/contact activity; conditions: foliar, 192 h, application rate of 200 ppm, bean leaf discs, mixed population (mobile stages), 8 days after infestation
Description: Example B11: Activity Against Tetranychus urticae (Two-Spotted Spider Mite): Feeding/Contact Activity
Bean leaf discs on agar in 24-well microtiter plates were sprayed with aqueous test solutions prepared from 10,000 ppm DMSO stock solutions. After drying the leaf discs were infested with a mite population of mixed ages. The samples were assessed for mortality on mixed population (mobile stages) 8 days after infestation.

[2] = system: Spodoptera littoralis (Egyptian Cotton Leaf Worm); test: Activity against Spodoptera littoralis (cotton leaf discs, spray); conditions: foliar, 72 h, read-out: control (mortality, anti-feeding effect, growth inhibition)
Description: Example B9: Activity Against Spodoptera littoralis (Egyptian Cotton Leaf Worm)
Cotton leaf discs were placed onto agar in 24-well microtiter plates and sprayed with aqueous test solutions prepared from 10,000 ppm DMSO stock solutions. After drying the leaf discs were infested with five L1 larvae. The samples were assessed for mortality, anti-feeding effect, and growth inhibition in comparison to untreated samples 3 days after infestation. Control of Spodoptera littoralis by a test sample is given when at least one of the categories mortality, anti-feedant effect, and growth inhibition is higher than the untreated sample.

[3] = system: Myzus persicae (Green Peach Aphid); test: Activity against Myzus persicae: systemic activity; conditions: 144 h
Description: Example B6: Activity Against Myzus persicae (Green Peach Aphid). Systemic Activity
Roots of pea seedlings infested with an aphid population of mixed ages were placed directly into aqueous test solutions prepared from 10,000 DMSO stock solutions. The samples were assessed for mortality 6 days after placing seedlings into test solutions.

[4] = system: Aedes aegypti (Yellow Fever Mosquito); test: Activity against Aedes aegypti; conditions: 200 ppm in ethanol, dry deposit in 12 well plates, adult females, after 48 h and/or 24 h
Description: Example B13: Activity Against Aedes aegypti (Yellow Fever Mosquito)
Test solutions, at an application rate of 200 ppm in ethanol, were applied to 12 well tissue culture plates. Once the deposits were dry, five, two to five day old adult female Aedes aegypti were added to each well, and sustained with a 10% sucrose solution in a cotton wool plug. Assessment of knockdown was made one hour after introduction, and mortality was assessed at 24 and 48 hours after introduction.

[5] = system: Plutella xylostella (Diamond Back Moth); test: Activity against Plutella xylostella; conditions: 120 h, read-out: effect in at least one of the two categories (mortality or growth inhibition); for percent effect (mortality or growth inhibition) at 200 ppm: application rate of 200 ppm, artificial diet, L2 larvae, 5 days after infestation
Description: Example B8: Activity Against Plutella xylostella (Diamond Back Moth)
(§1) 24-well microtiter plates with artificial diet were treated with aqueous test solutions prepared from 10,000 ppm DMSO stock solutions by pipetting. After drying, the plates were infested with L2 larvae (10 to 15 per well). The samples were assessed for mortality and growth inhibition in comparison to untreated samples 5 days after infestation.

[6] = system: Euschistus heros (Neotropical Brown Stink Bug); test: Activity against Euschistus heros; conditions: 120 h, read-out: effect in at least one of the two categories (mortality or growth inhibition); for percent effect (mortality or growth inhibition) at 200 ppm: application rate of 200 ppm, soybean leaves, N2 nymphs, 5 days after infestation
Description: Example B3: Activity Against Euschistus heros (Neotropical Brown Stink Bug)
Soybean leaves on agar in 24-well microtiter plates were sprayed with aqueous test solutions prepared from 10,000 ppm DMSO stock solutions. After drying the leaves were infested with N2 nymphs. The samples were assessed for mortality and growth inhibition in comparison to untreated samples 5 days after infestation.

[7] = system: Spodoptera littoralis (Egyptian Cotton Leaf Worm); test: Activity against Spodoptera littoralis (lettuce, uptake by the roots from agar); conditions: 144 h, read-out: effect in at least one of the three categories (mortality, anti-feeding, or growth inhibition); for percent effect (mortality, anti-feeding or growth inhibition) at 12.5 ppm: test rate of 12.5 ppm, lettuce grown on treated agar, Spodoptera eggs, 6 days after infestation
From the text: Example B10: Activity Against Spodoptera littoralis (Egyptian Cotton Leaf Worm)
Test compounds were applied by pipette from 10,000 ppm DMSO stock solutions into 24-well plates and mixed with agar. Lettuce seeds were placed onto the agar and the multi well plate was closed by another plate which contained also agar. After 7 days the compound was absorbed by the roots and the lettuce grew into the lid plate. The lettuce leaves were then cut off into the lid plate. Spodoptera eggs were pipetted through a plastic stencil onto a humid gel blotting paper and the lid plate was closed with it. The samples were assessed for mortality, anti-feedant effect and growth inhibition in comparison to untreated samples 6 days after infestation.

[8] = system: Myzus persicae (Green Peach Aphid); test: Activity against Myzus persicae: intrinsic activity; conditions: 120 h
From the text: Example B7: Activity Against Myzus persicae (Green Peach Aphid). Intrinsic Activity
Test compounds prepared from 10,000 ppm DMSO stock solutions were applied by pipette into 24-well microtiter plates and mixed with sucrose solution. The plates were closed with a stretched Parafilm. A plastic stencil with 24 holes was placed onto the plate and infested pea seedlings were placed directly on the Parafilm. The infested plate was closed with a gel blotting paper and another plastic stencil and then turned upside down. The samples were assessed for mortality 5 days after infestation.

[9] = system: Myzus persicae (Green Peach Aphid); test: Activity against Myzus persicae: feeding/contact activity; conditions: foliar, 144 h
Description: Example B5: Activity Against Myzus persicae (Green Peach Aphid): Feeding/Contact Activity
Sunflower leaf discs were placed onto agar in a 24-well microtiter plate and sprayed with aqueous test solutions prepared from 10,000 ppm DMSO stock solutions. After drying, the leaf discs were infested with an aphid population of mixed ages. The samples were assessed for mortality 6 days after infestation.

[10] = system: Diabrotica balteata (Corn Root Worm); test: Activity against Diabrotica balteata; conditions: 96 h, read-out: effect in at least one of the two categories (mortality or growth inhibition); for percent effect (mortality or growth inhibition) at 200 ppm: application rate of 200 ppm, maize sprouts, L2 larvae, 4 days after infestation
Description: Example B2: Activity Against Diabrotica balteata (Corn Root Worm)
as §1, with “Maize sprouts placed onto an agar layer in 24-well” for “24-well”, “plates” for “plates with artificial diet”, “spraying.” for “pipetting.”, “(6” for “(10”, “10” for “15”, “4” for “5”

[11] = system: Frankliniella occidentalis (Western Flower Thrips); test: Activity against Frankliniella occidentalis: feeding/contact activity; conditions: foliar, 168 h, application rate of 200 ppm, sunflower leaf discs, population of mixed ages, 7 days after infestation
Description: Example B4: Activity Against Frankliniella occidentalis (Western Flower Thrips): Feeding/Contact Activity
Sunflower leaf discs were placed on agar in 24-well microtiter plates and sprayed with aqueous test solutions prepared from 10,000 DMSO stock solutions. After drying the leaf discs were infested with a Frankliniella population of mixed ages. The samples were assessed for mortality 7 days after infestation.

[12] = system: Bemisia tabaci (Cotton White Fly); test: Activity against Bemisia tabaci: feeding/contact activity; conditions: foliar, 144 h, application rate of 200 ppm, cotton leaf discs, adult white flies, 6 days after incubation
Description: Example B1: Activity Against Bemisia tabaci (Cotton White Fly): Feeding/Contact Activity
Cotton leaf discs were placed on agar in 24-well microtiter plates and sprayed with aqueous test solutions prepared from 10,000 ppm DMSO stock solutions. After drying the leaf discs were infested with adult white flies. The samples were checked for mortality 6 days after incubation.

[13] = application rate of 200 ppm, cotton leaf discs, L1 larvae, 3 days after infestation
[14] = test rate of 12 ppm, sucrose solution under Parafilm, 5 days after infestation, read-out: mortality
[15] = application rate of 200 ppm, sunflower leaf discs, aphid population of mixed ages, 6 days after infestation, read-out: mortality
[16] = test rate of 24 ppm, roots of infested pea seedlings in test solution, 6 days, read-out: mortality

CCS(=O)(=O)c1cc2nc(C(F)(F)F)[nH]c2cc1-c1nc2cc(C(F)(F)F)ncc2n1C [Compound A7, 2-[6-ethylsulfonyl-2-(trifluoromethyl)-3H-benzimidazol-5-yl]-3-methyl-6-(trifluoromethyl)imidazo[4,5-c]pyridine]
≥ 80%: mortality at 200 ppm [1] | mortality at 200 ppm [2, 13]

CCS(=O)(=O)c1cc2ccccc2nc1-c1nc2cc(C(F)(F)F)ncc2n1C [Compound A22, 3-ethylsulfonyl-2-[3-methyl-6-(trifluoromethyl)imidazo[4,5-c]pyridin-2-yl]quinolone]
≥ 80%: mortality at 24 ppm [3] | pest or weed control at 200 ppm [4] | percent control (mortality or growth inhibition) at 200 ppm [5] | percent control (mortality or growth inhibition) at 200 ppm ([6]; in Glycine max) | percent control (mortality, anti-feedant effect or growth inhibition) at 12.5 ppm [7] | mortality at 12 ppm [8] | mortality at 200 ppm [9] | mortality at 200 ppm [2] | percent control (mortality or growth inhibition) at 200 ppm [10]

CCS(=O)(=O)c1cc2ccccc2cc1-c1nc2cc(C(F)(F)F)ncc2n1C [Compound A24, 2-(3-ethylsulfonyl-2-naphthyl)-3-methyl-6-(trifluoromethyl)imidazo[4,5-c]pyridine]
≥ 80%: pest or weed control at 200 ppm [4] | mortality at 200 ppm [1] | percent effect (mortality or growth inhibition) at 200 ppm [5] | percent effect (mortality or growth inhibition) at 200 ppm [6] | percent effect (mortality, anti-feeding or growth inhibition) at 12.5 ppm [7] | mortality at 12 ppm [8, 14] | mortality at 200 ppm [9, 15] | mortality at 200 ppm [2, 13] | percent effect (mortality or growth inhibition) at 200 ppm [10]

CCS(=O)(=O)c1cc2nc(C(F)(F)F)sc2cc1-c1nc2cc(C(F)(F)F)ncc2n1C [Compound A31, 5-ethylsulfonyl-6-[3-methyl-6-(trifluoromethyl)imidazo[4,5-c]pyridin-2-yl]-2-(trifluoromethyl)-1,3-benzothiazole]
≥ 80%: pest or weed control at 200 ppm [4] | percent effect (mortality or growth inhibition) at 200 ppm [5] | mortality at 200 ppm [11] | percent effect (mortality or growth inhibition) at 200 ppm [6] | percent effect (mortality, anti-feeding or growth inhibition) at 12.5 ppm [7] | mortality at 200 ppm [12] | mortality at 200 ppm [9, 15] | mortality at 200 ppm [2, 13] | percent effect (mortality or growth inhibition) at 200 ppm [10]

CCS(=O)(=O)c1cc2c(nc1-c1nc3cc(C(F)(F)F)ncc3n1C)nc(C(F)(F)F)n2C [Compound A33, 6-ethylsulfonyl-1-methyl-5-[3-methyl-6-(trifluoromethyl)imidazo[4,5-c]pyridin-2-yl]-2-(trifluoromethyl)imidazo[4,5-b]pyridine]
≥ 80%: mortality at 24 ppm [3, 16] | percent effect (mortality or growth inhibition) at 200 ppm [5] | mortality at 200 ppm [11] | percent effect (mortality or growth inhibition) at 200 ppm [6] | mortality at 200 ppm [12] | mortality at 200 ppm [9, 15] | mortality at 200 ppm [2, 13] | percent effect (mortality or growth inhibition) at 200 ppm [10]

CCS(=O)(=O)c1cc2nn(C)nc2cc1-c1nc2cc(C(F)(F)F)ncc2n1C [Compound A37, 5-ethylsulfonyl-2-methyl-6-[3-methyl-6-(trifluoromethyl)imidazo[4,5-c]pyridin-2-yl]benzotriazole]
≥ 80%: mortality at 24 ppm [3, 16] | percent effect (mortality or growth inhibition) at 200 ppm [5] | mortality at 200 ppm [11] | percent effect (mortality or growth inhibition) at 200 ppm [6] | mortality at 200 ppm [9, 15] | mortality at 200 ppm [2, 13] | percent effect (mortality or growth inhibition) at 200 ppm [10]

CCS(=O)(=O)c1cc2c(C3CC3)cccc2nc1-c1nc2cc(C(F)(F)F)ncc2n1C [Compound A43, 5-cyclopropyl-3-ethylsulfonyl-2-[3-methyl-6-(trifluoromethyl)imidazo[4,5-c]pyridin-2-yl]quinoline]
≥ 80%: mortality at 200 ppm [1] | percent effect (mortality or growth inhibition) at 200 ppm [5] | percent effect (mortality or growth inhibition) at 200 ppm [6] | percent effect (mortality, anti-feeding or growth inhibition) at 12.5 ppm [7] | mortality at 200 ppm [9, 15] | mortality at 200 ppm [2, 13] | percent effect (mortality or growth inhibition) at 200 ppm [10]

CCSc1cc2c(nc1-c1nc3cc(C(F)(F)F)ncc3n1C)CC(C)(C)O2 [Compound A58, 6-ethylsulfanyl-2,2-dimethyl-5-[3-methyl-6-(trifluoromethyl)imidazo[4,5-c]pyridin-2-yl]-3H-furo[3,2-b]pyridine]
≥ 80%: percent effect (mortality or growth inhibition) at 200 ppm [5] | percent effect (mortality or growth inhibition) at 200 ppm [6] | mortality at 12 ppm [8, 14] | mortality at 200 ppm [12] | mortality at 200 ppm [9, 15] | mortality at 200 ppm [2, 13] | percent effect (mortality or growth inhibition) at 200 ppm [10]
